Experiments:
[1] = biological target: T1, PDGFR-β (NIH 3T3 cell lysate) (Homo sapiens, UniProt P09619); assay: PDGFR bioassay, ELISA; assay type: biochemical; details: read-out: bio PDGF IC50
T1 construct: host or cells: NIH 3T3

[2] = biological target: T2, GST-Flk1 (Mus musculus, UniProt P35918); assay: GST-FLK-1 bioassay (bio flkGST), ELISA; assay type: biochemical
T2 construct: GST-Flk1cd purified from sf9 recombinant baculovirus transformation (SUGEN, Inc.); host or cells: Sf9 (baculovirus)

[3] = biological target: T3, EGFR (A431 cell lysate) (Homo sapiens, UniProt P00533); assay: EGFR bioassay, ELISA; assay type: biochemical; details: read-out: bio EGF IC50
T3 construct: A431 cell lysate (SUGEN, Inc.); host or cells: A431

[4] = biological target: T4, HER-2 kinase (EGFr/HER-2 chimera/3T3-C7 cell line) (Homo sapiens, UniProt P04626); assay: Cellular HER-2 kinase assay, whole-cell ELISA; assay type: cell-based; details: read-out: Her2 Kinase IC50
T4 construct: fused on or other part: EGFR extracellular part, stimulated by EGF and captured by the anti-EGFR antibody SUMO1; P00533 (Epidermal growth factor receptor)

[5] = biological target: T5, human cdk2/cyclin A (Homo sapiens, UniProt P24941); assay: CDK2/cyclin A scintillation proximity assay (cdk2spa); assay type: biochemical; details: read-out: cdk2spa C50
T5 construct: host or cells: Sf9

T1 sequence (P09619 33-1106): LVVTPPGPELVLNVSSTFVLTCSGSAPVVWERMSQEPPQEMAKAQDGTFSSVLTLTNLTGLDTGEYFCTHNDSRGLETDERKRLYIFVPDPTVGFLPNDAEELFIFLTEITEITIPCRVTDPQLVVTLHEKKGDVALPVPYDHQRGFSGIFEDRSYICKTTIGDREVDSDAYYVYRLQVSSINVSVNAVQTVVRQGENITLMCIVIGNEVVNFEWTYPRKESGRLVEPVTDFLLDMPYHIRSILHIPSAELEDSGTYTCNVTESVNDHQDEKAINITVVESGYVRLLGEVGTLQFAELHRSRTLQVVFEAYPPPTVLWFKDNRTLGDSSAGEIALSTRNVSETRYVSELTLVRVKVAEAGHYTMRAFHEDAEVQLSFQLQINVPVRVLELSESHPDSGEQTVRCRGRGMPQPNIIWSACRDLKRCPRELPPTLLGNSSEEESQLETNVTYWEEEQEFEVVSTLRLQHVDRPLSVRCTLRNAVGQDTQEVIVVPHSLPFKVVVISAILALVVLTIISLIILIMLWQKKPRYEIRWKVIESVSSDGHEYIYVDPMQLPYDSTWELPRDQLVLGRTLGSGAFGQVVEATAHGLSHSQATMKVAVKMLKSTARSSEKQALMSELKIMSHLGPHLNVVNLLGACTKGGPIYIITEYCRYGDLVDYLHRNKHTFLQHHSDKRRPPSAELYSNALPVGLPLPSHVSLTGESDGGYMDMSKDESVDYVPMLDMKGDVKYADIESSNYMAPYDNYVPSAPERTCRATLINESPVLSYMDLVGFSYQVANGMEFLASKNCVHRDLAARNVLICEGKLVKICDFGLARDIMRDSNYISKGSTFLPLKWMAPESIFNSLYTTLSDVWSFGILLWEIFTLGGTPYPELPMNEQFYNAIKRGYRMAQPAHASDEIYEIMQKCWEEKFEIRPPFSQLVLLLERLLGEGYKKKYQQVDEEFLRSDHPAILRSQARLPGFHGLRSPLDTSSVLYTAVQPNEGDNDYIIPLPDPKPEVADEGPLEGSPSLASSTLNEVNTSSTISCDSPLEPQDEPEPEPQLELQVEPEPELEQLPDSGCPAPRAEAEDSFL
T4 sequence (P04626 720-987 limits assumed, change not shown): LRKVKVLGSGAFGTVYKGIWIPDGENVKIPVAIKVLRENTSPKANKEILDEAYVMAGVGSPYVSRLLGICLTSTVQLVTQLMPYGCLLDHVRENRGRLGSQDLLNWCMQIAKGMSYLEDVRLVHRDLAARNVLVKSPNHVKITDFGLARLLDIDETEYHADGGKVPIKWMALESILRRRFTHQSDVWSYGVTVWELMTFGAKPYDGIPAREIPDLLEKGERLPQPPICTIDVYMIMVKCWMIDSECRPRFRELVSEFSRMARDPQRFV
T2 sequence (P35918 784-1345 limits assumed): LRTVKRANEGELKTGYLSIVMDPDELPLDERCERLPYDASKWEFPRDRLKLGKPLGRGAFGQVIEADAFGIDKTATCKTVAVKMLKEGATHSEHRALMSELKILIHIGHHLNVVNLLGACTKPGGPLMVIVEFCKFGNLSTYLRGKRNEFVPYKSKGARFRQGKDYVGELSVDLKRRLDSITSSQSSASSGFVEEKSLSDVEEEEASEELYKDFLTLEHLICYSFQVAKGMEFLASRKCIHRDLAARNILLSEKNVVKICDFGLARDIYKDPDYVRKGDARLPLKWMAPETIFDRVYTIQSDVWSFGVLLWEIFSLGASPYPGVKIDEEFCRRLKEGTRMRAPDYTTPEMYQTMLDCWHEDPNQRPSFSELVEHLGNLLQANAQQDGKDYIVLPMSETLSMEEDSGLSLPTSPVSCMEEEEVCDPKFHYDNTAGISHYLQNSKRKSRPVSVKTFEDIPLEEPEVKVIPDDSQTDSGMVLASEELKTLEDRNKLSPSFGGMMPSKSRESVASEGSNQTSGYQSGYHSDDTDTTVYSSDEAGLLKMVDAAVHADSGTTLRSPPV
T3 sequence (P00533 25-1210): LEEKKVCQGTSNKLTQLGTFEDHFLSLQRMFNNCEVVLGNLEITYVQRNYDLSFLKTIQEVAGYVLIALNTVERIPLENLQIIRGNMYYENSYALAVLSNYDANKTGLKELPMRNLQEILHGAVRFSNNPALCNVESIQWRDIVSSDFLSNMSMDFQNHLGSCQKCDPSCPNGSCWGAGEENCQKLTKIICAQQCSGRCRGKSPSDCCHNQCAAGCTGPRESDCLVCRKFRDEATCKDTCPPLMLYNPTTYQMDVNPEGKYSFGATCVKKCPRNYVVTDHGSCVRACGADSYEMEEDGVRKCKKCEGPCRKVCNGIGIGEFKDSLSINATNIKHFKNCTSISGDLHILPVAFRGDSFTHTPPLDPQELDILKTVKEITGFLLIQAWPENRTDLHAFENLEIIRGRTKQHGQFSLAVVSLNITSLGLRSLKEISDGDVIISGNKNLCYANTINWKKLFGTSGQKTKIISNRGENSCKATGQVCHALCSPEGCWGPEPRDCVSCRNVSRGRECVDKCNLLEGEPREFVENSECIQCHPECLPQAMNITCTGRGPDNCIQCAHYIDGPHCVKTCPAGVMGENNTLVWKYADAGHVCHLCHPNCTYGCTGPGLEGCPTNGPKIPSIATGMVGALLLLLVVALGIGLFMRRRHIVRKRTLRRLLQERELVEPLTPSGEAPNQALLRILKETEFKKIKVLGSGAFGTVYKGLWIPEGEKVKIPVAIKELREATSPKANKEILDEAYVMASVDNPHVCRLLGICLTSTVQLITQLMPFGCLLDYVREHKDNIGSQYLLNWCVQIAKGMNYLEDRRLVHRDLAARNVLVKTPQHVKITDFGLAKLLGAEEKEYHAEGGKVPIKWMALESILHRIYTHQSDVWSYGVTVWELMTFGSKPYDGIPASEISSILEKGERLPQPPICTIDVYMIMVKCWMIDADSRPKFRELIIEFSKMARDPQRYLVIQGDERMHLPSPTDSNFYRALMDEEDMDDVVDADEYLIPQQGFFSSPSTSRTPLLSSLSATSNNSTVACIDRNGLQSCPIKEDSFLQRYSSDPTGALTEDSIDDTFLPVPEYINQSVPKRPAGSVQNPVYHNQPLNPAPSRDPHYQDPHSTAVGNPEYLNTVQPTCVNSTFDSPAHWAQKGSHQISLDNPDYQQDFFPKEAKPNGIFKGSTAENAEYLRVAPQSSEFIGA

IC50 [1] [µM]	IC50 [2] [µM]	IC50 [3] [µM]	IC50 [4] [µM]	IC50 [5] [µM]	Compound
> 100					Cc1cc(C(=O)NCCCN2CCCC2)[nH]c1/C=C1\C(=O)Nc2ccc(Br)cc21 [Example 6, 5-(5-Bromo-2-oxo-1,2-dihydroindol-3-ylidenemethyl)-4-methyl-1H-pyrrole-2-carboxylic Acid (3-pyrrolidin-1-yl-propyl)amide]
> 100	> 20	> 100			CCN(CC)CCCNC(=O)c1[nH]c(/C=C2\C(=O)Nc3ccc(OC)cc32)cc1C [Example 15, 5-(5-Methoxy-2-oxo-1,2-dihydroindol-3-ylidenemethyl)-3-methyl-1H-pyrrole-2-carboxylic Acid (3-diethylamino-propyl)amide]
	> 20	> 100			CCN(CC)CCCNC(=O)c1[nH]c(/C=C2\C(=O)Nc3cc(OC)ccc32)cc1C [Example 16, 5-(6-Methoxy-2-oxo-1,2-dihydroindol-3-ylidenemethyl)-3-methyl-1H-pyrrole-2-carboxylic Acid (3-diethylamino-propyl)amide]
> 100	> 20	> 100			Cc1c(C(=O)NCCCN2CCOCC2)[nH]c(/C=C2\C(=O)Nc3ccc(Br)cc32)c1C(=O)c1ccccc1 [Example 22, 4-Benzoyl-5-(5-bromo-2-oxo-1,2-dihydroindol-3-ylidenemethyl)-3-methyl-1H-pyrrole-2-carboxylic Acid (3-morpholin-4-ylpropyl)amide]
> 100					Cc1c(C(=O)NCCCN2CCCC2)[nH]c(/C=C2\C(=O)Nc3ccc(Br)cc32)c1C(=O)c1ccccc1 [Example 24, 4-Benzoyl-5-(5-bromo-2-oxo-1,2-dihydroindol-3-ylidenemethyl)-3-methyl-1H-pyrrole-2-carboxylic Acid (3-pyrrolidin-1-ylpropyl)amide]
> 100					Cc1c(C(=O)NCCCN2CCCC2)[nH]c(/C=C2\C(=O)Nc3cc(-c4ccccc4)ccc32)c1C(=O)c1ccccc1 [Example 25, 4-Benzoyl-3-methyl-5-(2-oxo-6-phenyl-1,2-dihydroindol-3-ylidenemethyl)-1H-pyrrole-2-carboxylic Acid (3-pyrrolidin-1-ylpropyl)amide]
> 100	> 50				CC(=O)c1c(/C=C2\C(=O)Nc3ccc(Br)cc32)[nH]c(C(=O)NCCCN2CCOCC2)c1C [Example 31, 4-Acetyl-5-(5-bromo-2-oxo-1,2-dihydroindol-3-ylidenemethyl)-3-methyl-1H-pyrrole-2-carboxylic Acid (3-morpholin-4-ylpropyl)amide]
		> 100			COc1ccccc1-c1ccc2c(c1)NC(=O)/C2=C\c1[nH]c(C)c(C(=O)NCCN2CCCC2)c1-c1ccccc1 [Example 43, 5-[6-(2-Methoxyphenyl)-2-oxo-1,2-dihydroindol-3-ylidenemethyl]-2-methyl-4-phenyl-1H-pyrrole-3-carboxylic Acid (2-pyrrolidin-1-ylethyl)amide]
> 100		> 100	> 100		COc1ccccc1-c1ccc2c(c1)NC(=O)/C2=C\c1[nH]c(C)c(C(=O)NCCN(C)C)c1-c1ccccc1 [Example 45, 5-[6-(2-Methoxyphenyl)-2-oxo-1,2-dihydroindol-3-ylidenemethyl]-2-methyl-4-phenyl-1H-pyrrole-3-carboxylic Acid (2-dimethylaminoethyl)amide]
				> 20	CCN(CC)CCCNC(=O)c1c(C)[nH]c(/C=C2\C(=O)Nc3ccc(Br)cc32)c1-c1ccccc1 [Example 47, 5-(5-Bromo-2-oxo-1,2-dihydroindol-3-ylidenemethyl)-2-methyl-4-phenyl-1H-pyrrole-3-carboxylic Acid (3-diethylaminopropyl)amide]
< 0.78		> 100	> 100		Cc1[nH]c(/C=C2\C(=O)Nc3cc(-c4ccccc4)ccc32)c(C)c1C(=O)NCCN(C)C [Example 49, 2,4-Dimethyl-5-(2-oxo-6-phenyl-1,2-dihydroindol-3-ylidenemethyl)-1H-pyrrole-3-carboxylic Acid (2-dimethylaminoethyl)amide]
< 0.78		> 100	> 100		Cc1[nH]c(/C=C2\C(=O)Nc3ccc(Cl)cc32)c(C)c1C(=O)NCCN(C)C [Example 50, 5-(5-Chloro-2-oxo-1,2-dihydroindol-3-ylidenemethyl)-2,4-dimethyl-1H-pyrrole-3-carboxylic Acid (2-dimethylamino-ethyl)amide]
< 0.78					COc1ccccc1-c1ccc2c(c1)NC(=O)/C2=C\c1[nH]c(C)c(C(=O)NCCN(C)C)c1C [Example 54, 5-[6-(2-Methoxyphenyl)-2-oxo-1,2-dihydroindol-3-ylidenemethyl]-2,4-dimethyl-1H-pyrrole-3-carboxylic Acid (2-dimethylaminoethyl)amide]
		> 100			CCN(CC)CCCNC(=O)c1c(C)[nH]c(/C=C2\C(=O)Nc3cc(-c4ccccc4)ccc32)c1C [Example 68, 2,4-Dimethyl-5-(2-oxo-6-phenyl-1,2-dihydroindol-3-ylidenemethyl)-1H-pyrrole-3-carboxylic Acid (3-diethylaminopropyl)amide]
		> 100	> 100		CCN(CC)CCCNC(=O)c1c(C)[nH]c(/C=C2\C(=O)Nc3cccc(C(=O)Nc4ccc(OC)c(Cl)c4)c32)c1C [Example 69, 3-[4-(3-Diethylaminopropylcarbamoyl)-3,5-dimethyl-1H-pyrrol-2-ylmethylene]-2-oxo-2,3-dihydro-1H-indole-4-carboxylic Acid (3-chloro-4-methoxyphenyl)amide]
		> 100			CCN(CC)CCNC(=O)c1c(C(C)C)[nH]c(/C=C2\C(=O)Nc3ccc(Br)cc32)c1C(C)C [Example 71]
		> 100	> 100		Cc1[nH]c(/C=C2\C(=O)Nc3ccc(S(=O)(=O)N(C)C)cc32)c(C)c1C(=O)NCCN1CCCC1 [Example 82, 5-(5-Dimethylsulfamoyl-2-oxo-1,2-dihydroindol-3-ylidenemethyl)-2,4-dimethyl-1H-pyrrole-3-carboxylic Acid (2-pyrrolidin-1-ylethyl)amide]
			> 100		Cc1[nH]c(/C=C2\C(=O)Nc3ccc(S(=O)(=O)Nc4ccccc4)cc32)c(C)c1C(=O)N1CCN(C)CC1 [Example 86, 3-[3,5-Dimethyl-4-(4-methylpiperazine-1-carbonyl)-1H-pyrrol-2-ylmethylene]-2-oxo-2,3-dihydro-1H-indole-5-sulfonic Acid Phenylamide]
		> 100			CCN(CC)CCNC(=O)c1c(C)[nH]c(/C=C2\C(=O)Nc3ccc(S(=O)(=O)N(C)C)cc32)c1C [Example 87, 5-(5-Dimethylsulfamoyl-2-oxo-1,2-dihydroindol-3-ylidenemethyl)-2,4-dimethyl-1H-pyrrole-3-carboxylic Acid (2-diethylaminoethyl)amide]
7.48	7.3		> 100	0.006	CNS(=O)(=O)c1ccc2c(c1)/C(=C/c1[nH]cc(C(=O)O)c1C)C(=O)N2 [Example 115, 4-Methyl-5-(5-methylsulfamoyl-2-oxo-1,2-dihydro-indol-3-ylidenemethyl)-1H-pyrrole-3-carboxylic Acid]
> 100	> 20		> 100	< 0.0005	CCOC(=O)CNC(=O)c1c[nH]c(/C=C2\C(=O)Nc3ccc(S(=O)(=O)NC)c(C)c32)c1C [Example 116, {[4-Methyl-5-(4-methyl-5-methylsulfamoyl-2-oxo-1,2-dihydro-indol-3-ylidenemethyl)-1H-pyrrole-3-carbonyl]-amino}-acetic Acid Ethyl Ester]
		> 100	> 100		CCOC(=O)CNC(=O)c1c[nH]c(/C=C2\C(=O)Nc3ccc(S(=O)(=O)NC)cc32)c1C [Example 117, {[4-Methyl-5-(5-methylsulfamoyl-2-oxo-1,2-dihydro-indol-3-ylidenemethyl)-1H-pyrrole-3-carbonyl]-amino}-acetic Acid Ethyl Ester]
1.2	1.93		> 100	0.002	CNS(=O)(=O)c1ccc2c(c1)/C(=C/c1[nH]cc(C(=O)NCC(=O)O)c1C)C(=O)N2 [Example 118, {[4-Methyl-5-(5-methylsulfamoyl-2-oxo-1,2-dihydro-indol-3-ylidenemethyl)-1H-pyrrole-3-carbonyl]-amino}-acetic Acid]
